The target in assay [1] is T1, Vascular endothelial growth factor receptor 2 (Homo sapiens, UniProt P35968). The experiment in a line: Inhibition of VEGF stimulated phosphorylation of KDR on tyrosine residues in human kidney cells expressing vascular endothelial growth factor receptor 2. Format: cell-based.
The target in assay [2] is T1, Vascular endothelial growth factor receptor 2. The experiment in a line: Intrinsic potency against VEGF stimulated KDR phosphorylation. Format: functional.
Assay [3] addresses VEGF-receptor 2 and PDGF-receptor beta (KDR and PDGFR beta) (Homo sapiens) (UniProt P09619+P35968). The experiment in a line: Selectivity for VEGFR2 over platelet-derived growth factor receptor beta.
Assay [4] deals with Vascular endothelial growth factor receptor 1 and 2 (Flt-1 and KDR) (Homo sapiens) (UniProt P17948+P35968). The experiment in a line: Selectivity for VEGF-receptor 2 over fms-like tyrosine kinase 1, VEGF-receptor 1. Format: protein assay.
In assay [5] the target is Fibroblast growth factor receptor 4 (Homo sapiens) (UniProt P22455). The experiment in a line: Selectivity for fibroblast growth factor receptor 4.
The target of assay [6] is VEGF-receptor 2 and Fibroblast growth factor receptor 1 (Homo sapiens) (UniProt P35968+P11362). The experiment in a line: Selectivity for VEGF-receptor 2 over fibroblast growth factor receptor 1. Format: protein assay.
For assay [7], the target named is VEGF-receptor 2 and tyrosine-protein kinase SRC (Homo sapiens) (UniProt P12931+P35968). In words: Selectivity for VEGF-receptor 2 over c-Src tyrosine kinase. It counts as protein assay.
The target in assay [8] is Vascular endothelial growth factor receptor 2 and 3 (KDR and Flt-4) (Homo sapiens) (UniProt P35916+P35968). In words: Selectivity of for VEGF-receptor 2 over fms-like tyrosine kinase-4, VEGF-receptor 3. Format: protein assay.
For assay [9], the target named is T1, Vascular endothelial growth factor receptor 2. In words: Inhibition of phosphorylation of poly-Glu/Tyr (4:1) peptide substrate by VEGF-receptor 2 (KDR) kinase.

The text below walks through data of ChEMBL document CHEMBL1146681, “Design and synthesis of 3,7-diarylimidazopyridines as inhibitors of the VEGF-receptor KDR” (Bioorg Med Chem Lett, 2004).

As a reminder, the IC50 is the point on the concentration scale where inhibition reaches its midpoint. Read a low IC50 as greater potency in that assay.

T1 sequence (P35968 whole entry): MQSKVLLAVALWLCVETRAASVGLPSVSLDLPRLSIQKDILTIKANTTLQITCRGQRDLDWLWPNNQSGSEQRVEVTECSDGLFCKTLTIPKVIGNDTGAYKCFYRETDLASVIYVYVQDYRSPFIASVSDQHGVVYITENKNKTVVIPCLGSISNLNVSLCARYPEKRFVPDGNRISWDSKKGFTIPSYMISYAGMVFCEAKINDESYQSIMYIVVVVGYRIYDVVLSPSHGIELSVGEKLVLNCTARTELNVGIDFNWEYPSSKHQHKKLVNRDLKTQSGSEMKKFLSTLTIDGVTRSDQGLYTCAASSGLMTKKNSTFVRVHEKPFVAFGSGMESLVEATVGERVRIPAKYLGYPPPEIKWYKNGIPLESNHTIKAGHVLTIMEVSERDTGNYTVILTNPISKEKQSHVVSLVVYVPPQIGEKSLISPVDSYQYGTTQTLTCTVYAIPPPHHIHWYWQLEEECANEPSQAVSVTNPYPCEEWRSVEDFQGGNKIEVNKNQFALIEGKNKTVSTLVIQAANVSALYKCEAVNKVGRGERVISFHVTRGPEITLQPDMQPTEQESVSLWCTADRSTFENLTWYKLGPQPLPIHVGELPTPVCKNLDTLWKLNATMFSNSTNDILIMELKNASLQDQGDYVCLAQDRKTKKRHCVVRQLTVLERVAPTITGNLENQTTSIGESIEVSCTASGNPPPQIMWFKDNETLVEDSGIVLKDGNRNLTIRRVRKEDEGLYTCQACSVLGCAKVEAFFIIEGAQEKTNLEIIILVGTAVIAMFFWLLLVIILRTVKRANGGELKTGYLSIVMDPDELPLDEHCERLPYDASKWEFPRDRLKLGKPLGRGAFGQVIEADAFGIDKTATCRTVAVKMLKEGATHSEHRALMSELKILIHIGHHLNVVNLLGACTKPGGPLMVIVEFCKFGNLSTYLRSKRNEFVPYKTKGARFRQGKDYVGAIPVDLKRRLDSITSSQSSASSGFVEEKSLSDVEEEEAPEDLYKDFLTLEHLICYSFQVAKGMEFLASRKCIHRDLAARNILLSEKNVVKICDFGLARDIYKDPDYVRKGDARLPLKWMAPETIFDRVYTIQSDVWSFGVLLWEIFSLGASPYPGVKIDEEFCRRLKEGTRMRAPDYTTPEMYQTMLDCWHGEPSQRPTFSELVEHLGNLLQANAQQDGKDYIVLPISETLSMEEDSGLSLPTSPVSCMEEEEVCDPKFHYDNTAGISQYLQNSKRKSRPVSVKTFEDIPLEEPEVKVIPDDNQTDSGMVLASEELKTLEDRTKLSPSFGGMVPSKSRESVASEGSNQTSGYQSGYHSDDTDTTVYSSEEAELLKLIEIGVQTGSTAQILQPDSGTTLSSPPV
Chain of VEGF-receptor 2 and PDGF-receptor beta (KDR and PDGFR beta) (Homo sapiens) (P09619 whole entry, looked up): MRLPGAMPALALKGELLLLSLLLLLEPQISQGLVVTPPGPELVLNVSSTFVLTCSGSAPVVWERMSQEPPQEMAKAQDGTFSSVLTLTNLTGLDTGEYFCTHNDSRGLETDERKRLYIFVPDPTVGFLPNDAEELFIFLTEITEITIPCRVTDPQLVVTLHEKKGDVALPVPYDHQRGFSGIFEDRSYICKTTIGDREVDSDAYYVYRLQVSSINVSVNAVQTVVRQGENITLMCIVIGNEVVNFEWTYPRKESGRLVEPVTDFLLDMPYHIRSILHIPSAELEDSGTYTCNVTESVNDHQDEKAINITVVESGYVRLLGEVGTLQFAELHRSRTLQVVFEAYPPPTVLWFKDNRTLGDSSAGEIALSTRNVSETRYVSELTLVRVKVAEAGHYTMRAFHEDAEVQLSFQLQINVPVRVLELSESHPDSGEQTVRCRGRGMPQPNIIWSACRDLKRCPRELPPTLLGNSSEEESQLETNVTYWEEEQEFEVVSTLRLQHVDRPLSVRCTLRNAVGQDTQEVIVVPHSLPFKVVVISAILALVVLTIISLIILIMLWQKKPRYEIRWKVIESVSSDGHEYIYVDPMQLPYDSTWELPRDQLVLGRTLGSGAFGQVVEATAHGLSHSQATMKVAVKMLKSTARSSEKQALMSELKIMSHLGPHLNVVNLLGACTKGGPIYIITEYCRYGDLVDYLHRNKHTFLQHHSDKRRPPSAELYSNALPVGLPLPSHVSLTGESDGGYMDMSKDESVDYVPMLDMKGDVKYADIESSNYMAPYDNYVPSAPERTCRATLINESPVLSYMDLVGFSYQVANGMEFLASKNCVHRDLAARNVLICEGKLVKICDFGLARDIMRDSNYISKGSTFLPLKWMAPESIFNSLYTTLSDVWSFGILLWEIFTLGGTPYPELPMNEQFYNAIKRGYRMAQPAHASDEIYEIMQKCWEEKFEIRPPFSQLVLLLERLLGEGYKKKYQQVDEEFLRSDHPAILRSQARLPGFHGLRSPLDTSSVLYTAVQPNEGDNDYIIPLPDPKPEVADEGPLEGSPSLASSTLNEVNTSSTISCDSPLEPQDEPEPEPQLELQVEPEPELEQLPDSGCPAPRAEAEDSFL
Chain of VEGF-receptor 2 and PDGF-receptor beta (KDR and PDGFR beta) (Homo sapiens) (P35968 whole entry, looked up): as the sequence (P35968 whole entry) above
Chain of Vascular endothelial growth factor receptor 1 and 2 (Flt-1 and KDR) (Homo sapiens) (P17948 whole entry, looked up): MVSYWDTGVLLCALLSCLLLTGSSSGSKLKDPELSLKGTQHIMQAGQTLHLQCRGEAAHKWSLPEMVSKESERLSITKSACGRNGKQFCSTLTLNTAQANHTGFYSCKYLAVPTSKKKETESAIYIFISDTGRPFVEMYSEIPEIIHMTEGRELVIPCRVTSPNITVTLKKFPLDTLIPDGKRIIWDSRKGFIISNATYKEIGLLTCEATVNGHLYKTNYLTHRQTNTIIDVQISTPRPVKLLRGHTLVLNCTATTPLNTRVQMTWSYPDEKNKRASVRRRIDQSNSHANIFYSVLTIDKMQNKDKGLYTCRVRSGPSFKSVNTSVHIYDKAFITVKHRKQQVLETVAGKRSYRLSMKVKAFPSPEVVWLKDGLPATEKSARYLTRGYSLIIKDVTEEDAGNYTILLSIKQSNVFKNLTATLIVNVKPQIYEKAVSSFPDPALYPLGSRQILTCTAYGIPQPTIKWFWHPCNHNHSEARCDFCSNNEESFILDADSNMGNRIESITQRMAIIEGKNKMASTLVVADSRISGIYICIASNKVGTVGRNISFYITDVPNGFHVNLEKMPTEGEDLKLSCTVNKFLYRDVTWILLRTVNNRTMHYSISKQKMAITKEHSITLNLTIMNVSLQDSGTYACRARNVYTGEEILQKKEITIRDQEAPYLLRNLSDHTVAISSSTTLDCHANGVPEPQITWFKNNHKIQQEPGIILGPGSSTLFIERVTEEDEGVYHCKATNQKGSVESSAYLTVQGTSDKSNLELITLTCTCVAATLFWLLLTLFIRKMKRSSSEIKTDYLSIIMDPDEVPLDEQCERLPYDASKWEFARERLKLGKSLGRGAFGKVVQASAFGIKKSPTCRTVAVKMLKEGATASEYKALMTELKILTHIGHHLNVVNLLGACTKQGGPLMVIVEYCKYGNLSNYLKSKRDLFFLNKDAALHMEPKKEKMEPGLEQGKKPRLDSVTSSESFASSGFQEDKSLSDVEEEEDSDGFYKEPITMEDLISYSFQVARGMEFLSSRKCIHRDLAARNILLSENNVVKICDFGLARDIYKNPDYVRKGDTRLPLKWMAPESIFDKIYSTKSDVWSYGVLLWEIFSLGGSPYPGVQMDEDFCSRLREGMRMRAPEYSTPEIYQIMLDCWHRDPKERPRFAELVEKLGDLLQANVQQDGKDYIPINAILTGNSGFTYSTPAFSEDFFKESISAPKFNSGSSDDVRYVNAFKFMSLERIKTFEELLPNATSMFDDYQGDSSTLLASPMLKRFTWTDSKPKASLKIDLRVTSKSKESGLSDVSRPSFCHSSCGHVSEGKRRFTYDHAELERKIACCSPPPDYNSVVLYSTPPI
Chain of Vascular endothelial growth factor receptor 1 and 2 (Flt-1 and KDR) (Homo sapiens) (P35968 whole entry, looked up): as the sequence (P35968 whole entry) above
Chain of VEGF-receptor 2 and tyrosine-protein kinase SRC (Homo sapiens) (P12931 whole entry, looked up): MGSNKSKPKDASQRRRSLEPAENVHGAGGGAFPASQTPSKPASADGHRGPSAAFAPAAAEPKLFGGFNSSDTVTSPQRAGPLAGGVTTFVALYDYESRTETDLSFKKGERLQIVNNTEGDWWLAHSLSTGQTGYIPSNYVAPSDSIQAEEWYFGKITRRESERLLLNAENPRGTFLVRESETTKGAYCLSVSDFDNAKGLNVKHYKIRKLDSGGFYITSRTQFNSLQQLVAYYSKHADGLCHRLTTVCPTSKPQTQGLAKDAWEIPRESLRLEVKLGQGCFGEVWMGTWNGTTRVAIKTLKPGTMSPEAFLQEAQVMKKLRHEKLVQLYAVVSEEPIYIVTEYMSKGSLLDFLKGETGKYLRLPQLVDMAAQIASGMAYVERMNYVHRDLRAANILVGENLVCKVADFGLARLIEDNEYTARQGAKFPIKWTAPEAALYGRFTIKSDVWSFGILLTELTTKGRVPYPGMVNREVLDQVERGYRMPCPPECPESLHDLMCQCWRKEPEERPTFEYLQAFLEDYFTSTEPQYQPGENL
Chain of VEGF-receptor 2 and tyrosine-protein kinase SRC (Homo sapiens) (P35968 whole entry, looked up): as the sequence (P35968 whole entry) above

As to `NC(=O)N1CCN(Cc2ccc(-c3ccn4c(-c5ccccc5)cnc4c3)cc2)CC1`, the IC50 in assay [1] is 69 nM.

Turning to `CNC(=O)N1CCN(Cc2ccc(-c3ccn4c(-c5ccccc5)cnc4c3)cc2)CC1`, the IC50 was determined as 410 nM in assay [2] and 52 nM in assay [1].

For the molecule `CN(C)CC1CCCN(CCCn2ccc(-c3ccn4c(-c5ccccc5)cnc4c3)cc2=O)C1` (configuration not stated), the half-inhibitory concentration (IC50) stood at 280 nM in assay [2] and 67 nM in assay [1].

The molecule `c1ccc(-c2ccn3c(-c4cnsc4)cnc3c2)cc1` displayed an IC50 in assay [1] of 50 nM.

`c1ccc(-c2ccn3c(-c4cncs4)cnc3c2)cc1` yielded an IC50 in assay [1] of 99 nM.

In turn, `c1ccc(-c2ccn3c(-c4ccccc4)cnc3c2)cc1` yielded an IC50 in assay [1] of 98 nM.

Molecule `COc1cccc(-c2cnc3cc(-c4ccccc4)ccn23)n1` displayed an IC50 in [1] of 242 nM.

`COCCN(C)CCCn1ccc(-c2ccn3c(-c4ccccc4)cnc3c2)cc1=O` yielded a 50% inhibitory concentration (IC50) in [1] of 96 nM.

`CC(=O)N1CCN(Cc2ccc(-c3ccn4c(-c5ccccc5)cnc4c3)cc2)CC1`: the values for the IC50 in assay [2] and in [1] were 300 nM and 77 nM, respectively.

For `CS(=O)(=O)N1CCN(Cc2ccc(-c3ccn4c(-c5ccccc5)cnc4c3)cc2)CC1`, the IC50 is 110 nM in [2] and 13 nM in assay [1].

Regarding `c1ccc(-c2ccn3c(-c4ccncc4)cnc3c2)cc1`, the IC50 in assay [1] was determined as 145 nM.

`O=c1cc(-c2ccn3c(-c4ccccc4)cnc3c2)ccn1CCCO` had an IC50 in [1] of 120 nM.

Take `c1ccc(-c2ccn3c(-c4nccs4)cnc3c2)cc1`: the Selectivity in assay [3] came out at 1.4; in [4], 7; in [5], 23; in assay [6], 47; in assay [7], 165; in assay [8], 1.7. Besides, 42 nM corresponded to half-maximal inhibition in [1] (IC50).

For `O=c1cc(-c2ccn3c(-c4ccccc4)cnc3c2)ccn1CCCN1CCCCC1`, the Selectivity in [3] was determined as 1; in [4], 3.1; in [6] it was 60; in [7], 68; in [8], 2.8. For the same molecule, the IC50 in assay [2] came out at 51 nM; in [1], 28 nM.

In turn, `COc1ccc(-c2cnc3cc(-c4ccccc4)ccn23)cn1` registered an IC50 in assay [9] of 2840 nM.

Molecule `c1ccc(-c2ccn3c(-c4cccnc4)cnc3c2)cc1` gave an IC50 in assay [1] of 930 nM.
